One test addresses T1, plasma kallikrein (Homo sapiens, UniProt P03952).
T1 construct: from tissue; host or cells: sodium citrate collected human plasma (78% final)
The test is described as follows: Neat human plasma assay: contact pathway-activated (FXIIa) plasma, PFR-AMC substrate. The format is biochemical. As to conditions: citrated human plasma (78% final), 10 nM human FXIIa, 100 μM PFR-AMC, room temperature. An outline of the steps: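 Compounds spiked into citrated human or rat plasma (78% final), or plasma taken from orally or IV dosed rats, activated with 10 nM human FXIIa; 100 μM PFR-AMC cleavage read at 360/480 nm for 5 min, room temperature. Rates vs concentration fit to 4-parameter IC50/IC90 equation.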

The target of test [1] is human activated kallikrein enzyme (Homo sapiens, UniProt P03952). As to the kind of experiment: Inhibition of activated plasma kallikrein, fluorogenic peptide substrate (PFR-AMC) assay, 500 pM enzyme format. The format is biochemical. As to conditions: 500 pM activated kallikrein, 300 uM PFR-AMC, 30 min preincubation, 10 min reaction, room temperature; read-out: Primary Dose Response Assay: Average EC50. The procedure, abridged: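 500 pM enzyme preincubated 30 min at room temperature with inhibitor in 20 mM Tris pH 7.5, 150 mM NaCl, 1 mM EDTA, 0.1% PEG-400, 0.1% Triton X-100. Reaction started with 300 uM PFR-AMC and run 10 min at room temperature. Fluorescence read at 380 nm excitation/460 nm emission.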
human activated kallikrein enzyme, sequence (P03952 391-638 limits assumed): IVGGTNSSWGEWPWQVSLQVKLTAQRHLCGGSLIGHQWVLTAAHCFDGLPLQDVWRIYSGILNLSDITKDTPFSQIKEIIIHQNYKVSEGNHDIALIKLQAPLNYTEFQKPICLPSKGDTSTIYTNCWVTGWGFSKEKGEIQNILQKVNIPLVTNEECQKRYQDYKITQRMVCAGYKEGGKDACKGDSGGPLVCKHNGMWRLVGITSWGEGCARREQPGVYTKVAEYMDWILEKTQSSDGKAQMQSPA
human activated kallikrein enzyme, sequence (P03952 20-390 partner limits assumed): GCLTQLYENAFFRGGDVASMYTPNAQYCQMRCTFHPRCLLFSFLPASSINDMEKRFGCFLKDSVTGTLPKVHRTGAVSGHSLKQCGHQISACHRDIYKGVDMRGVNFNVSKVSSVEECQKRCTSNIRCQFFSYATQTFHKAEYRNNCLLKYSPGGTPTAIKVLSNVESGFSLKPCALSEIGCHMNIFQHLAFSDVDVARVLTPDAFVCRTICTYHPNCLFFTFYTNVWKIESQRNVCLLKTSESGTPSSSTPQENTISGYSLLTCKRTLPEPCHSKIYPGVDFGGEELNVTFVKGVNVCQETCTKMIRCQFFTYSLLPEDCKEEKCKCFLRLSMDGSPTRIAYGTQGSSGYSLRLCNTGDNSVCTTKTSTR

Structures are written as SMILES. Bounds are passed on as bounds.

T1 sequence (P03952 391-638 limits assumed): as the sequence (P03952 391-638 limits assumed) above
T1 sequence (P03952 20-390 partner limits assumed): as the sequence (P03952 20-390 partner limits assumed) above

Usually IC90 stands for the concentration at which the effect reaches the 90% level. A high value points to a need for much substance. As usually defined, the EC50 is the concentration that produces a half-maximal response. Turning to `Cc1ccnc(C2CC2c2cc(=O)c3ccc(NCc4cn5cc(C6CC6)cc(N6CC(=O)N(C)C6=O)c5n4)cc3[nH]2)n1` (single isomer, unassigned) [Example 13, 1-(6-cyclopropyl-2-(((2-(2-(4-methylpyrimidin-2-yl)cyclopropyl)-4-oxo-1,4-dihydroquinolin-7-yl)amino)methyl)imidazo[1,2-a]pyridin-8-yl)-3-methylimidazolidine-2,4-dione], on plasma kallikrein, the IC90 was at most 400 nM. The EC50 in test [1] lay within 1 to 10 nM.
In the same order, the values of `Cc1ccnc([C@H]2C[C@@H]2c2cc(=O)c3cnc(NCc4cn5cc(C6CC6)cc(N6CC(=O)N(C)C6=O)c5n4)cc3[nH]2)n1` (racemic) [Example 10, rac-1-(6-cyclopropyl-2-(((2-((1S*,2S*)-2-(4-methylpyrimidin-2-yl)cyclopropyl)-4-oxo-1,4-dihydro-1,6-naphthyridin-7-yl)amino)methyl)imidazo[1,2-a]pyridin-8-yl)-3-methylimidazolidine-2,4-dione] are at most 400 nM and at most 1 nM.
In the same order, the values of `Cc1ccnc([C@H]2C[C@@H]2C2=NS(=O)(=O)c3ccc(NCc4cn5cc(C6CC6)ccc5n4)cc3N2)n1` (single isomer, unassigned) [Example 65] are 400 to 1500 nM and at most 1 nM.
In the same order, the values of `Cc1ccnc([C@H]2C[C@@H]2c2cc(N(C)CC(C)(C)O)c3ccc(NCc4cn5cc(C6CC6)cc(N6CC(=O)N(C)C6=O)c5n4)cc3n2)n1` [Example 100, 1-(6-cyclopropyl-2-(((4-((2-hydroxy-2-methylpropyl)(methyl)amino)-2-((1S,2S)-2-(4-methylpyrimidin-2-yl)cyclopropyl)quinolin-7-yl)amino)methyl)imidazo[1,2-a]pyridin-8-yl)-3-methylimidazolidine-2,4-dione] are at most 400 nM and at most 1 nM.
Compound `COc1cc([C@H]2C[C@@H]2c2nccc(C)n2)nc2cc(N3C[C@@H](O)C[C@@H]3c3cn4cc(C5CC5)cc(N5CC(=O)N(C)C5=O)c4n3)ccc12` (relative stereo) [Example 67, rac-1-(6-cyclopropyl-2-((2R,4S)-4-hydroxy-1-(4-methoxy-2-((1S*,2S*)-2-(4-methylpyrimidin-2-yl)cyclopropyl)quinolin-7-yl)pyrrolidin-2-yl)imidazo[1,2-a]pyridin-8-yl)-3-methylimidazolidine-2,4-dione] yielded an IC90 on plasma kallikrein of 400 to 1500 nM. Moreover, in test [1], the concentration for a half-maximal effect (EC50) is 1 to 10 nM.
As to `Cc1ccnc([C@H]2C[C@@H]2C2=NS(=O)(=O)c3ccc(OCc4cn5cc(C6CC6)ccc5n4)cc3N2)n1` (racemic) [Example 92, rac-6-((6-cyclopropylimidazo[1,2-a]pyridin-2-yl)methoxy)-3-((1S*,2S*)-2-(4-methylpyrimidin-2-yl)cyclopropyl)-4H-benzo[e][1,2,4]thiadiazine 1,1-dioxide], on plasma kallikrein, the 90% effect concentration (IC90) fell in the range of 1500 to 10000 nM. Besides, the EC50 in test [1] was at most 1 nM.
In the same order, the values of `Cc1ccnc([C@H]2C[C@@H]2c2ccc3c(N(C)C)cc(NCc4cn5cc(C6CC6)cc(N6CC(=O)N(C)C6=O)c5n4)cc3n2)n1` (racemic) [Example 88, rac-1-(6-cyclopropyl-2-(((5-(dimethylamino)-2-((1S*,2S*)-2-(4-methylpyrimidin-2-yl)cyclopropyl)quinolin-7-yl)amino)methyl)imidazo[1,2-a]pyridin-8-yl)-3-methylimidazolidine-2,4-dione] are 400 to 1500 nM and at most 1 nM.
Compound `Cc1ccnc([C@H]2C[C@@H]2c2cc(=O)c3ccc(NCc4cn5cc(C6CC6)cc(N6CC(=O)N(C)C6=O)c5n4)cc3[nH]2)n1` (racemic) [Example 11, rac-1-(6-cyclopropyl-2-(((2-((1S*,2S*)-2-(4-methylpyrimidin-2-yl)cyclopropyl)-4-oxo-1,4-dihydroquinolin-7-yl)amino)methyl)imidazo[1,2-a]pyridin-8-yl)-3-methylimidazolidine-2,4-dione] displayed an IC90 on plasma kallikrein of 400 to 1500 nM. Further, the concentration giving a half-maximal response (EC50) in test [1] was at most 1 nM.
As for `Cc1ccnc([C@H]2C[C@@H]2c2cc(N3CC4(COC4)C3)c3ccc(NCc4cn5cc(C6CC6)cc(N6CC(=O)N(C)C6=O)c5n4)cc3n2)n1` [Example 36, 1-(6-cyclopropyl-2-(((2-((1S,2S)-2-(4-methylpyrimidin-2-yl)cyclopropyl)-4-(2-oxa-6-azaspiro[3.3]heptan-6-yl)quinolin-7-yl)amino)methyl)imidazo[1,2-a]pyridin-8-yl)-3-methylimidazolidine-2,4-dione], at plasma kallikrein, the IC90 is at most 400 nM. The EC50 in test [1] was at most 1 nM.
For `Cc1ccnc([C@H]2C[C@@H]2c2ccc3ccc(NCc4cn5cc(C6CC6)cc(N6CC(=O)N(C7COC7)C6=O)c5n4)cc3n2)n1` (racemic) [Example 78, rac-1-(6-cyclopropyl-2-(((2-((1S*,2S*)-2-(4-methylpyrimidin-2-yl)cyclopropyl)quinolin-7-yl)amino)methyl)imidazo[1,2-a]pyridin-8-yl)-3-(oxetan-3-yl)imidazolidine-2,4-dione] the same measures were 1500 to 10000 nM and at most 1 nM.
For `Cc1ccnc([C@H]2C[C@@H]2c2cc(OCCO)c3ccc(NCc4cn5cc(C6CC6)cc(N6CC(=O)N(C)C6=O)c5n4)cc3n2)n1` (racemic) [Example 69, rac-1-(6-cyclopropyl-2-(((4-(2-hydroxyethoxy)-2-((1S*,2S*)-2-(4-methylpyrimidin-2-yl)cyclopropyl)quinolin-7-yl)amino)methyl)imidazo[1,2-a]pyridin-8-yl)-3-methylimidazolidine-2,4-dione] the same measures were 400 to 1500 nM and at most 1 nM.
For `Cc1ccnc([C@H]2C[C@@H]2c2cc(N(C)S(C)(=O)=O)c3ccc(NCc4cn5cc(C6CC6)cc(N6CC(=O)N(C)C6=O)c5n4)cc3n2)n1` (racemic) [Example 34, rac-N-(7-(((6-cyclopropyl-8-(3-methyl-2,4-dioxoimidazolidin-1-yl)imidazo[1,2-a]pyridin-2-yl)methyl)amino)-2-((1S*,2S*)-2-(4-methylpyrimidin-2-yl)cyclopropyl)quinolin-4-yl)-N-methylmethanesulfonamide] the same measures were 1500 to 10000 nM and 1 to 10 nM.
Turning to `Cc1ccnc([C@H]2C[C@@H]2c2ccc3ccc(N4C[C@@H](O)C[C@@H]4c4cn5cc(C6CC6)cc(N6CC(=O)N(C)C6=O)c5n4)cc3n2)n1` (relative stereo) [Example 68, rac-1-(6-cyclopropyl-2-((2R,4S)-4-hydroxy-1-(2-((1S*,2S*)-2-(4-methylpyrimidin-2-yl)cyclopropyl)quinolin-7-yl)pyrrolidin-2-yl)imidazo[1,2-a]pyridin-8-yl)-3-methylimidazolidine-2,4-dione], at plasma kallikrein, the 90% effect concentration (IC90) was in the range of 1500 to 10000 nM. In addition, the EC50 in test [1] fell in the range of 1 to 10 nM.
`Cc1ccnc([C@H]2C[C@@H]2c2cc(N3CCN(C)CC3)c3ccc(NCc4cn5cc(C6CC6)cc(N6CC(=O)N(C)C6=O)c5n4)cc3n2)n1` [Example 39, 1-(6-cyclopropyl-2-(((4-(4-methylpiperazin-1-yl)-2-((1S,2S)-2-(4-methylpyrimidin-2-yl)cyclopropyl)quinolin-7-yl)amino)methyl)imidazo[1,2-a]pyridin-8-yl)-3-methylimidazolidine-2,4-dione]: the concentration for an effect of 90% (IC90) against plasma kallikrein was at most 400 nM. Moreover, in test [1], the EC50 is at most 1 nM.
